From patent US9029337B2, “Modulation of factor 7 expression” (Isis Pharmaceuticals, Inc., priority 2007, dated 2015)
Strand notation (5' to 3'): a small letter for the sugar, then the base; units joined by * are phosphorothioate-linked, units joined directly phosphodiester-linked; [ ] holds rarer units or linkages, { } end groups; capitals alone tell only the bases. e = 2'-O-(2-methoxyethyl) (MOE); [5mC] = 5-methylcytosine; d = 2'-deoxy (DNA)

What follows are substances tested on human Factor 7 mRNA (assay: Antisense inhibition of human Factor 7 mRNA in HepB3 cells, 50 nM antisense oligonucleotide, lipofectin). Details: Table 1, 50 nM, lipofectin, approximately 24 hours, relative to untreated control cells.
Assay type: cell-based
Description: Antisense oligonucleotides targeted to a Factor 7 nucleic acid were tested for their effects on Factor 7 mRNA in vitro. Cultured HepB3 cells at a density of 4,000 cells per well were transfected using lipofectin reagent with 50 nM antisense oligonucleotide. After a treatment period of approximately 24 hours, RNA was isolated from the cells and Factor 7 mRNA levels were measured by real-time RT-PCR, as described herein. Factor 7 mRNA levels were adjusted according to total RNA content as measured by RIBOGREEN®. Results are presented as percent inhibition of Factor 7, relative to untreated control cells.
(§1) Antisense oligonucleotides targeted to a Factor 7 nucleic acid were designed and tested for their effects on Factor 7 mRNA in vitro. Certain antisense oligonucleotides from Table 3 were also retested for their effects on Factor 7 mRNA in vitro. Cultured HepB3 cells at a density of 4,000 cells per well were transfected using lipofectin reagent with 50 nM antisense oligonucleotide. After a treatment period of approximately 24 hours, RNA was isolated from the cells and Factor 7 mRNA levels were measured by real-time RT-PCR, as described herein. Human Factor 7 primer probe set RTS 2927 was used to measure mRNA levels. Factor 7 mRNA levels were adjusted according to total RNA content as measured by RIBOGREEN®. Results are presented as percent inhibition of Factor 7, relative to untreated control.
as §1, with “tested” for “tested for their effects on Factor 7 mRNA in vitro. Certain antisense oligonucleotides from Table 3 were also retested”
These gapmers were designed by creating gapmers shifted slightly upstream and downstream (i.e. “microwalk”) of the original gapmers from Table 7. Gapmers were also created with various motifs, e.g. 5-10-5 MOE, 3-14-3 MOE, and 2-13-5 MOE. These gapmers were tested in vitro. Cultured HepB3 cells at a density of 4,000 cells per well were transfected using lipofectin reagent with 50 nM antisense oligonucleotide. After a treatment period of approximately 24 hours, RNA was isolated from the cells and Factor 7 mRNA levels were measured by real-time RT-PCR. Factor 7 mRNA levels were adjusted according to total RNA content, as measured by RIBOGREEN®. Results are presented as percent inhibition of Factor 7, relative to untreated control cells.

Row | Substance | % Inhibition [%]
1 | 403090 (antisense eA*eG*eT*e[5mC]*e[5mC]*dT*dG*dG*dG*dT*d[5mC]*dA*dT*d[5mC]*dA*eG*e[5mC]*e[5mC]*eG*eG) [compound 403090] | 69
2 | 403093 (antisense eG*eA*eG*eA*e[5mC]*d[5mC]*d[5mC]*dT*dG*dG*dT*dG*dT*dA*d[5mC]*eA*e[5mC]*e[5mC]*e[5mC]*e[5mC]) [compound 403093] | 75
3 | 407595 (antisense eT*e[5mC]*e[5mC]*eT*eG*dA*dG*dG*d[5mC]*d[5mC]*dT*dT*dA*dG*d[5mC]*eG*eA*e[5mC]*e[5mC]*e[5mC]) [compound 407595] | 71
4 | 407596 (antisense eG*eA*eG*eG*e[5mC]*d[5mC]*d[5mC]*d[5mC]*dG*dG*d[5mC]*dT*dT*d[5mC]*d[5mC]*eA*e[5mC]*eG*eG*e[5mC]) [compound 407596] | 61
5 | 407597 (antisense eT*eG*eT*eT*eG*dA*d[5mC]*dA*dT*dT*d[5mC]*d[5mC]*d[5mC]*d[5mC]*dA*eT*eG*eG*eG*eA) [compound 407597] | 39
6 | 407598 (antisense e[5mC]*e[5mC]*eA*eT*eG*dA*dT*dG*dA*dA*dA*dT*d[5mC]*dT*d[5mC]*eT*eG*e[5mC]*eA*eG) [compound 407598] | 72
7 | 407599 (antisense e[5mC]*e[5mC]*eT*eG*eG*dG*dA*dG*dA*d[5mC]*d[5mC]*dA*dT*dG*dA*eT*eG*eA*eA*eA) [compound 407599] | 73
8 | 407600 (antisense eT*eG*eA*eA*eG*d[5mC]*d[5mC]*d[5mC]*dA*dA*dG*d[5mC]*dA*dG*dA*eA*eG*eG*e[5mC]*eA) [compound 407600] | 61
9 | 407601 (antisense e[5mC]*eA*eG*e[5mC]*e[5mC]*d[5mC]*dT*dG*dA*dA*dG*d[5mC]*d[5mC]*d[5mC]*dA*eA*eG*e[5mC]*eA*eG) [compound 407601] | 52
10 | 407602 (antisense e[5mC]*eT*eG*e[5mC]*eA*dG*d[5mC]*d[5mC]*dA*dG*dG*d[5mC]*dA*dG*d[5mC]*e[5mC]*e[5mC]*eT*eG*eA) [compound 407602] | 81
11 | 407603 (antisense eT*eA*eA*eG*eA*dA*dA*dT*d[5mC]*d[5mC]*dA*dG*dA*dA*d[5mC]*eA*eG*e[5mC]*eT*eT) [compound 407603] | 54
12 | 407604 (antisense e[5mC]*eA*e[5mC]*eA*e[5mC]*dT*dG*dG*dT*d[5mC]*d[5mC]*d[5mC]*d[5mC]*dA*dT*e[5mC]*eA*e[5mC]*eT*eG) [compound 407604] | 34
13 | 407605 (antisense eT*eT*eG*eA*eG*dG*d[5mC]*dA*d[5mC]*dA*d[5mC]*dT*dG*dG*dT*e[5mC]*e[5mC]*e[5mC]*e[5mC]*eA) [compound 407605] | 58
14 | 407607 (antisense eT*eG*eG*eA*eG*d[5mC]*dT*dG*dG*dT*d[5mC]*d[5mC]*dT*dT*dG*e[5mC]*eA*eG*eG*eA) [compound 407607] | 76
15 | 407608 (antisense eT*eA*eT*eA*eG*dG*dA*d[5mC]*dT*dG*dG*dA*dG*d[5mC]*dT*eG*eG*eT*e[5mC]*e[5mC]) [compound 407608] | 13
16 | 407609 (antisense eA*eG*eA*eA*eG*d[5mC]*dA*dG*dA*dT*dA*dT*dA*dG*dG*eA*e[5mC]*eT*eG*eG) [compound 407609] | 35
17 | 407610 (antisense eA*eG*eG*eG*eA*dG*dG*d[5mC]*dA*dG*dA*dA*dG*d[5mC]*dA*eG*eA*eT*eA*eT) [compound 407610] | 31
18 | 407611 (antisense eT*e[5mC]*eT*e[5mC]*eA*d[5mC]*dA*dG*dT*dT*d[5mC]*d[5mC]*dG*dG*d[5mC]*e[5mC]*e[5mC]*eT*e[5mC]*eG) [compound 407611] | 82
19 | 407612 (antisense eA*eG*eA*eT*e[5mC]*dA*dG*d[5mC]*dT*dG*dG*dT*d[5mC]*dA*dT*e[5mC]*e[5mC]*eT*eT*eG) [compound 407612] | 82
20 | 407613 (antisense eT*eG*e[5mC]*eT*e[5mC]*dA*d[5mC]*dA*dG*d[5mC]*d[5mC]*dG*d[5mC]*d[5mC]*dG*eT*eT*e[5mC]*eT*e[5mC]) [compound 407613] | 66

Row | Substance | % Inhibition [%]
21 | 407614 (antisense eT*eG*e[5mC]*eA*eG*dT*dA*d[5mC]*dT*dG*d[5mC]*dT*d[5mC]*dA*d[5mC]*eA*eG*e[5mC]*e[5mC]*eG) [compound 407614] | 78
22 | 407615 (antisense eG*eA*e[5mC]*eA*e[5mC]*d[5mC]*d[5mC]*d[5mC]*dG*dT*d[5mC]*dT*dG*d[5mC]*d[5mC]*eA*eG*e[5mC]*eA*eG) [compound 407615] | 65
23 | 407616 (antisense eT*eG*e[5mC]*eA*eG*dG*dA*d[5mC]*dA*d[5mC]*d[5mC]*d[5mC]*d[5mC]*dG*dT*e[5mC]*eT*eG*e[5mC]*e[5mC]) [compound 407616] | 64
24 | 407617 (antisense eT*e[5mC]*e[5mC]*eA*e[5mC]*dA*dT*dG*dG*dA*dT*dA*dT*dT*d[5mC]*eA*eA*e[5mC]*eT*eG) [compound 407617] | 67
25 | 407618 (antisense eG*eT*eA*eT*eT*dT*dT*dT*d[5mC]*d[5mC]*dA*d[5mC]*dA*dT*dG*eG*eA*eT*eA*eT) [compound 407618] | 42
26 | 407619 (antisense eA*eG*eA*eA*eT*dA*dG*dG*dT*dA*dT*dT*dT*dT*dT*e[5mC]*e[5mC]*eA*e[5mC]*eA) [compound 407619] | 64
27 | 407620 (antisense eA*eG*eG*eA*e[5mC]*d[5mC]*dT*dG*d[5mC]*d[5mC]*dA*dT*dG*dG*dA*e[5mC]*eA*e[5mC]*eT*e[5mC]) [compound 407620] | 79
28 | 407621 (antisense eA*e[5mC]*eA*eA*e[5mC]*dA*dG*dG*dA*d[5mC]*d[5mC]*dT*dG*d[5mC]*d[5mC]*eA*eT*eG*eG*eA) [compound 407621] | 62
29 | 407622 (antisense eT*e[5mC]*eA*e[5mC]*e[5mC]*dA*dA*d[5mC]*dA*dA*d[5mC]*dA*dG*dG*dA*e[5mC]*e[5mC]*eT*eG*e[5mC]) [compound 407622] | 55
30 | 407623 (antisense eT*e[5mC]*e[5mC]*eA*eT*dT*d[5mC]*dA*d[5mC]*d[5mC]*dA*dA*d[5mC]*dA*dA*e[5mC]*eA*eG*eG*eA) [compound 407623] | 69
31 | 407624 (antisense eG*eA*eG*eA*e[5mC]*d[5mC]*dA*d[5mC]*d[5mC]*d[5mC]*dA*dG*dA*dT*dG*eG*eT*eG*eT*eT) [compound 407624] | 73
32 | 407625 (antisense eT*eT*eG*eT*e[5mC]*dG*dA*dA*dA*d[5mC]*dA*dG*dT*dG*dG*eG*e[5mC]*e[5mC]*eG*e[5mC]) [compound 407625] | 100
33 | 407626 (antisense eT*e[5mC]*eT*eT*eG*dA*dT*dT*dT*dT*dG*dT*d[5mC]*dG*dA*eA*eA*e[5mC]*eA*eG) [compound 407626] | 82
34 | 407627 (antisense eG*e[5mC]*e[5mC]*e[5mC]*eA*dG*d[5mC]*dA*d[5mC]*d[5mC]*dG*d[5mC]*dG*dA*dT*e[5mC]*eA*eG*eG*eT) [compound 407627] | 79
35 | 407628 (antisense eT*eG*eA*eT*eG*dA*d[5mC]*d[5mC]*dT*dG*d[5mC]*dG*d[5mC]*d[5mC]*dA*e[5mC]*e[5mC]*e[5mC]*eG*e[5mC]) [compound 407628] | 38
36 | 407629 (antisense eT*e[5mC]*eA*eG*eT*dG*dA*dG*dG*dA*d[5mC]*d[5mC]*dA*d[5mC]*dG*eG*eG*e[5mC]*eT*eG) [compound 407629] | 34
37 | 407630 (antisense e[5mC]*eA*e[5mC]*eA*eT*dG*dG*dT*d[5mC]*dA*dG*dT*dG*dA*dG*eG*eA*e[5mC]*e[5mC]*eA) [compound 407630] | 29
38 | 407631 (antisense eG*eG*eG*e[5mC]*eA*d[5mC]*d[5mC]*dA*d[5mC]*dA*dT*dG*dG*dT*d[5mC]*eA*eG*eT*eG*eA) [compound 407631] | 66
39 | 407632 (antisense eT*e[5mC]*e[5mC]*eG*eT*dT*d[5mC]*dG*dG*dG*d[5mC]*dA*dG*dG*d[5mC]*eA*eG*eA*eG*eG) [compound 407632] | 46
40 | 407633 (antisense eG*e[5mC]*eA*eG*eG*d[5mC]*dA*dG*dT*d[5mC]*d[5mC]*dT*dG*dG*dG*eT*e[5mC]*eA*eT*e[5mC]) [compound 407633] | 71
